Test results as given in ChEMBL document CHEMBL5724914, “Linking interpersonal differences in gut microbiota composition and drug biotransformation activity” (2024).

Details: human gut metagenome, 24 h, 2 µM
Note: call rule not given here.

SMILES	Bacterial Biotransformation
CN1CCOC(c2ccccc2)c2ccccc2C1 (stereo not given) [NEFOPAM]	Compound metabolized
Cc1ccc(-c2nc3ccc(C)cn3c2CC(=O)N(C)C)cc1 [ZOLPIDEM]	Compound metabolized

Assay: (§1) The drug is tested on WLS-170 corresponding to human gut metagenome with ENA study accession number: PRJEB37062 and ENA sample accession number: ERS12561762 for biotransformation under anaerobic condition. The drug concentrations were measured over 9 timepoints collected between 0 and 24 hours of incubation by liquid-chromatography-coupled mass spectrometry (LC–MS)
Details: 2 µM

SMILES	Bacterial Biotransformation
CN1CCOC(c2ccccc2)c2ccccc2C1 (stereo not given) [NEFOPAM]	Compound NOT metabolized
Cc1ccc(-c2nc3ccc(C)cn3c2CC(=O)N(C)C)cc1 [ZOLPIDEM]	Compound NOT metabolized

Details: human gut metagenome, 24 h, 2 µM
Remark: another data set of the same source

SMILES	Bacterial Biotransformation
CN1CCOC(c2ccccc2)c2ccccc2C1 (stereo not given) [NEFOPAM]	Compound NOT metabolized
Cc1ccc(-c2nc3ccc(C)cn3c2CC(=O)N(C)C)cc1 [ZOLPIDEM]	Compound NOT metabolized

Assay: as §1, with “Z-030” for “WLS-170”, “mouse” for “human”, “ERS12561829” for “ERS12561762”
Details: 2 µM

SMILES	Bacterial Biotransformation
CN1CCOC(c2ccccc2)c2ccccc2C1 (stereo not given) [NEFOPAM]	Compound NOT metabolized
Cc1ccc(-c2nc3ccc(C)cn3c2CC(=O)N(C)C)cc1 [ZOLPIDEM]	Compound NOT metabolized

Assay: as §1, with “Z-024” for “WLS-170”, “pig” for “human”, “ERS12561823” for “ERS12561762”
Details: 2 µM

SMILES	Bacterial Biotransformation
CN1CCOC(c2ccccc2)c2ccccc2C1 (stereo not given) [NEFOPAM]	Compound NOT metabolized
Cc1ccc(-c2nc3ccc(C)cn3c2CC(=O)N(C)C)cc1 [ZOLPIDEM]	Compound NOT metabolized

Assay: as §1, with “Z-001” for “WLS-170”, “mouse” for “human”, “ERS12561801” for “ERS12561762”
Details: 2 µM

SMILES	Bacterial Biotransformation
CN1CCOC(c2ccccc2)c2ccccc2C1 (stereo not given) [NEFOPAM]	Compound NOT metabolized
Cc1ccc(-c2nc3ccc(C)cn3c2CC(=O)N(C)C)cc1 [ZOLPIDEM]	Compound NOT metabolized

Details: human gut metagenome, 24 h, 2 µM
Remark: another data set of the same source

SMILES	Bacterial Biotransformation
CN1CCOC(c2ccccc2)c2ccccc2C1 (stereo not given) [NEFOPAM]	Compound metabolized
Cc1ccc(-c2nc3ccc(C)cn3c2CC(=O)N(C)C)cc1 [ZOLPIDEM]	Compound metabolized

Assay: as §1, with “Z-002” for “WLS-170”, “rabbit” for “human”, “ERS12561802” for “ERS12561762”
Details: 2 µM

SMILES	Bacterial Biotransformation
CN1CCOC(c2ccccc2)c2ccccc2C1 (stereo not given) [NEFOPAM]	Compound NOT metabolized
Cc1ccc(-c2nc3ccc(C)cn3c2CC(=O)N(C)C)cc1 [ZOLPIDEM]	Compound metabolized

Assay: as §1, with “Z-027” for “WLS-170”, “to” for “to human gut”, “ERS12561826” for “ERS12561762”
Details: 2 µM

SMILES	Bacterial Biotransformation
CN1CCOC(c2ccccc2)c2ccccc2C1 (stereo not given) [NEFOPAM]	Compound NOT metabolized
Cc1ccc(-c2nc3ccc(C)cn3c2CC(=O)N(C)C)cc1 [ZOLPIDEM]	Compound NOT metabolized

Assay: as §1, with “Z-028” for “WLS-170”, “mouse” for “human”, “ERS12561827” for “ERS12561762”
Details: 2 µM

SMILES	Bacterial Biotransformation
CN1CCOC(c2ccccc2)c2ccccc2C1 (stereo not given) [NEFOPAM]	Compound NOT metabolized
Cc1ccc(-c2nc3ccc(C)cn3c2CC(=O)N(C)C)cc1 [ZOLPIDEM]	Compound NOT metabolized

Assay: as §1, with “Z-004” for “WLS-170”, “to” for “to human gut”, “ERS12561804” for “ERS12561762”
Details: 2 µM

SMILES	Bacterial Biotransformation
CN1CCOC(c2ccccc2)c2ccccc2C1 (stereo not given) [NEFOPAM]	Compound NOT metabolized
Cc1ccc(-c2nc3ccc(C)cn3c2CC(=O)N(C)C)cc1 [ZOLPIDEM]	Compound NOT metabolized

Assay: as §1, with “Z-010” for “WLS-170”, “to” for “to human gut”, “ERS12561810” for “ERS12561762”
Details: 2 µM

SMILES	Bacterial Biotransformation
CN1CCOC(c2ccccc2)c2ccccc2C1 (stereo not given) [NEFOPAM]	Compound NOT metabolized
Cc1ccc(-c2nc3ccc(C)cn3c2CC(=O)N(C)C)cc1 [ZOLPIDEM]	Compound metabolized

Details: human gut metagenome, 24 h, 2 µM
Remark: another data set of the same source

SMILES	Bacterial Biotransformation
CN1CCOC(c2ccccc2)c2ccccc2C1 (stereo not given) [NEFOPAM]	Compound NOT metabolized
Cc1ccc(-c2nc3ccc(C)cn3c2CC(=O)N(C)C)cc1 [ZOLPIDEM]	Compound NOT metabolized

Assay: as §1, with “WLS-090” for “WLS-170”, “ERS12561753” for “ERS12561762”
Details: 2 µM

SMILES	Bacterial Biotransformation
CN1CCOC(c2ccccc2)c2ccccc2C1 (stereo not given) [NEFOPAM]	Compound metabolized
Cc1ccc(-c2nc3ccc(C)cn3c2CC(=O)N(C)C)cc1 [ZOLPIDEM]	Compound metabolized

Details: human gut metagenome, 24 h, 2 µM
Remark: another data set of the same source

SMILES	Bacterial Biotransformation
CN1CCOC(c2ccccc2)c2ccccc2C1 (stereo not given) [NEFOPAM]	Compound NOT metabolized
Cc1ccc(-c2nc3ccc(C)cn3c2CC(=O)N(C)C)cc1 [ZOLPIDEM]	Compound metabolized

Assay: as §1, with “WLS-370” for “WLS-170”, “ERS12561793” for “ERS12561762”
Details: 2 µM

SMILES	Bacterial Biotransformation
CN1CCOC(c2ccccc2)c2ccccc2C1 (stereo not given) [NEFOPAM]	Compound metabolized
Cc1ccc(-c2nc3ccc(C)cn3c2CC(=O)N(C)C)cc1 [ZOLPIDEM]	Compound NOT metabolized

Details: human gut metagenome, 24 h, 2 µM
Remark: another data set of the same source

SMILES	Bacterial Biotransformation
CN1CCOC(c2ccccc2)c2ccccc2C1 (stereo not given) [NEFOPAM]	Compound metabolized
Cc1ccc(-c2nc3ccc(C)cn3c2CC(=O)N(C)C)cc1 [ZOLPIDEM]	Compound metabolized

Details: human gut metagenome, 24 h, 2 µM
Remark: another data set of the same source

SMILES	Bacterial Biotransformation
CN1CCOC(c2ccccc2)c2ccccc2C1 (stereo not given) [NEFOPAM]	Compound NOT metabolized
Cc1ccc(-c2nc3ccc(C)cn3c2CC(=O)N(C)C)cc1 [ZOLPIDEM]	Compound metabolized

Assay: as §1, with “Z-020” for “WLS-170”, “rabbit” for “human”, “ERS12561819” for “ERS12561762”
Details: 2 µM

SMILES	Bacterial Biotransformation
CN1CCOC(c2ccccc2)c2ccccc2C1 (stereo not given) [NEFOPAM]	Compound NOT metabolized
Cc1ccc(-c2nc3ccc(C)cn3c2CC(=O)N(C)C)cc1 [ZOLPIDEM]	Compound NOT metabolized

Assay: as §1, with “Z-026” for “WLS-170”, “to” for “to human gut”, “ERS12561825” for “ERS12561762”
Details: 2 µM

SMILES	Bacterial Biotransformation
CN1CCOC(c2ccccc2)c2ccccc2C1 (stereo not given) [NEFOPAM]	Compound NOT metabolized
Cc1ccc(-c2nc3ccc(C)cn3c2CC(=O)N(C)C)cc1 [ZOLPIDEM]	Compound NOT metabolized
